The text below walks through data of publication doi:10.1101/844506v1 (biorxiv, 2019).

The target of the assay is B8CYA8 (β-glucosidase from Halothermothrix orenii) (Halothermothrix orenii, UniProt B8CYA8). The assay can be described thus: melting temperature shift. The assay is classed as binding. As to conditions: 0.5 M glucose.
Sequence of B8CYA8 (β-glucosidase from Halothermothrix orenii) (B8CYA8 1-451): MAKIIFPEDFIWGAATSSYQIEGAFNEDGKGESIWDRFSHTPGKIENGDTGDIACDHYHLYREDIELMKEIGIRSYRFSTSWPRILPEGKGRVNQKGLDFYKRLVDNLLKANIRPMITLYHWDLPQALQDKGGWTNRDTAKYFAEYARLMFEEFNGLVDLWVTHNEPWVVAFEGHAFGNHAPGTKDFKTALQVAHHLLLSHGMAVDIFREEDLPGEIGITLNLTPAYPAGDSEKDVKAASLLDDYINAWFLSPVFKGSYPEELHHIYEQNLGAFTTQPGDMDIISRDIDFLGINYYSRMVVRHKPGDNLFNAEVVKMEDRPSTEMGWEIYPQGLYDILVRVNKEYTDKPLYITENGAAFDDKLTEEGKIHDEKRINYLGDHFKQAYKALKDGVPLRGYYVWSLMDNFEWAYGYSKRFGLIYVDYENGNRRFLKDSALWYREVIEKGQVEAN

On to `OC[C@H]1OC(O)[C@H](O)[C@@H](O)[C@@H]1O` (stereo partly shown) [glucose], for which the “increase in melting temperature” value was 4-5 °C.
